US10287301B2 (Achillion Pharmaceuticals, Inc., priority 2015, dated 2019)
pIC50: −log10 of the molar value.

Target: Human Factor D (Homo sapiens (Human), UniProt P00746)
Assay: Human Factor D Assay
Type: biochemical
Details: Human Factor D assay of Example 8; Table 2; read-out: IC50
Method in brief: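 Factor D (from human serum) 80 nM final + cpd, 5 min RT, 50 mM Tris/1M NaCl pH 7.5; add Z-L-Lys-SBzl 100 μM and DTNB 100 μM final. IC50 by nonlinear fit of rates vs [cpd].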

Human Factor D, sequence (P00746 26-253): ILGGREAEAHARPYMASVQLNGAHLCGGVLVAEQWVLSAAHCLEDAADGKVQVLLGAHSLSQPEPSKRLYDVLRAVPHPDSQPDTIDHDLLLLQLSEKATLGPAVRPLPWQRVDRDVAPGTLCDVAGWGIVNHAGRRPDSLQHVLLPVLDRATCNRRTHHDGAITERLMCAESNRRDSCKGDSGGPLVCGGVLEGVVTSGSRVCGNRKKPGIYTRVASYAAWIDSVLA

SMILES | pIC50
COCCOCCNC(=O)c1cc2ncc(-c3ccc4c(c3)c(C(C)=O)nn4CC(=O)N3C[C@H](F)C[C@H]3C(=O)Nc3cccc(Br)n3)cn2n1 [Compound 290, 6-(3-acetyl-1-(2-((2S,4R)-2-(6-bromopyridin-2-ylcarbamoyl)-4-fluoropyrrolidin-1-yl)-2-oxoethyl)-1H-indazol-5-yl)-N-(2-(2-methoxyethoxy)ethyl)pyrazolo[1,5-a]pyrimidine-2-carboxamide] | > 6.00
CC(=O)c1nn(CC(=O)N2C[C@H](F)C[C@H]2C(=O)Nc2cccc(Br)n2)c2ccc(-c3n[nH]c4ccsc34)cc12 [Compound 291, (2S,4R)-1-(2-(3-Acetyl-5-(1H-thieno[3,2-c]pyrazol-3-yl)-1H-indazol-1-yl)acetyl)-N-(6-bromopyridin-2-yl)-4-fluoropyrrolidine-2-carboxamide] | > 6.00
CC(=O)n1cc(NC(=O)N2C[C@H](F)C[C@H]2C(=O)Nc2cccc(Br)n2)c2ccc(-c3cnc(C)nc3)cc21 [Compound 292, (2S,4R)-N1-(1-acetyl-6-(2-methylpyrimidin-5-yl)-1H-indol-3-yl)-N2-(6-bromopyridin-2-yl)-4-fluoropyrrolidine-1,2-dicarboxamide] | > 6.00
CC(=O)n1cc(NC(=O)N2C[C@H](F)C[C@H]2C(=O)Nc2cccc(-c3ccccc3Cl)c2F)c2ccc(-c3cnc(C)nc3)cc21 [Compound 293] | > 6.00
CC(=O)c1nn(CC(=O)N2CC=C[C@H]2C(=O)Nc2cccc(Br)n2)c2ccc(-c3cnc(C)nc3)cc12 [Compound 294, (S)-1-(2-(3-acetyl-5-(2-methylpyrimidin-5-yl)-1H-indazol-1-yl)acetyl)-N-(6-bromopyridin-2-yl)-2,5-dihydro-1H-pyrrole-2-carboxamide] | > 6.00
CC(=O)c1nn(CC(=O)N2C[C@H](F)C[C@H]2C(=O)Nc2cccc(-c3cccc(S(C)(=O)=O)c3)c2F)c2ccc(-c3cnc(C)nc3)cc12 [Compound 295, (2S,4R)-1-(2-(3-Acetyl-5-(2-methylpyrimidin-5-yl)-1H-indazol-1-yl)acetyl)-4-fluoro-N-(2-fluoro-3′-(methylsulfonyl)-[1,1′-biphenyl]-3-yl)pyrrolidine-2-carboxamide] | > 6.00
CC(=O)c1nn(CC(=O)N2C[C@H](F)C[C@H]2C(=O)Nc2cccc(-c3ccccc3Cl)c2F)c2ccc(-c3cnc4cc(C)nn4c3)cc12 [Compound 296, (2S,4R)-1-(2-(3-acetyl-5-(2-methylpyrazolo[1,5-a]pyrimidin-6-yl)-1H-indazol-1-yl)acetyl)-N-(2′-chloro-2-fluorobiphenyl-3-yl)-4-fluoropyrrolidine-2-carboxamide] | > 6.00
CC(=O)c1nn(CC(=O)N2C[C@H](F)C[C@H]2C(=O)Nc2cccc(Br)n2)c2ccc(-c3nc4c(s3)CCCC4)cc12 [Compound 297] | < 5.00
CC(=O)c1cn(CC(=O)N2[C@@H]3C[C@@H]3C[C@H]2C(=O)Nc2cccc(Br)n2)c2ccc(-c3cnc4cc(C)nn4c3)cc12 [Compound 298, (1R,3S,5R)-2-(2-(3-acetyl-5-(2-methylpyrazolo[1,5-a]pyrimidin-6-yl)-1H-indol-1-yl)acetyl)-N-(6-bromopyridin-2-yl)-2-azabicyclo[3.1.0] hexane-3-carboxamide] | > 6.00
CC(=O)c1cn(CC(=O)N2C[C@H](F)C[C@H]2C(=O)NCc2cccc(Cl)c2F)c2ccc(-c3cnc4cc(C)nn4c3)cc12 [Compound 299, (2S,4R)-1-(2-(3-acetyl-5-(2-methylpyrazolo[1,5-a]pyrimidin-6-yl)-1H-indol-1-yl)acetyl)-N-(3-chloro-2-fluorobenzyl)-4-fluoropyrrolidine-2-carboxamide] | > 6.00
CC(=O)c1cn(CC(=O)N2C[C@H](F)C[C@H]2C(=O)Nc2cccc(-c3ccccc3Cl)c2F)c2ccc(-c3cnc4cc(C)nn4c3)cc12 [Compound 300, (2S,4R)-1-(2-(3-acetyl-5-(2-methylpyrazolo[1,5-a]pyrimidin-6-yl)-1H-indol-1-yl)acetyl)-N-(2′-chloro-2-fluorobiphenyl-3-yl)-4-fluoropyrrolidine-2-carboxamide] | > 6.00
CC(=O)c1cn(CC(=O)N2C[C@H](F)C[C@H]2C(=O)Nc2cccc(C(F)(F)F)n2)c2ccc(-c3cnc4cc(C)nn4c3)cc12 [Compound 301, (2S,4R)-1-(2-(3-acetyl-5-(2-methylpyrazolo[1,5-a]pyrimidin-6-yl)-1H-indol-1-yl)acetyl)-4-fluoro-N-(6-(trifluoromethyl)pyridin-2-yl)pyrrolidine-2-carboxamide] | > 6.00
CC(=O)c1nn(CC(=O)N2C[C@H](F)C[C@H]2C(=O)Nc2cccc(Br)n2)c2ccc(-c3cnc4cccnn34)cc12 [Compound 302, (2S,4R)-1-(2-(3-acetyl-5-(imidazo[1,2-b]pyridazin-3-yl)-1H-indazol-1-yl)acetyl)-N-(6-bromopyridin-2-yl)-4-fluoropyrrolidine-2-carboxamide] | > 6.00
CC(=O)c1nn(CC(=O)N2C[C@H](F)C[C@H]2C(=O)Nc2cccc(Br)n2)c2ccc(-c3ccc4nccn4n3)cc12 [Compound 303, (2S,4R)-1-(2-(3-acetyl-5-(imidazo[1,2-b]pyridazin-6-yl)-1H-indazol-1-yl)acetyl)-N-(6-bromopyridin-2-yl)-4-fluoropyrrolidine-2-carboxamide] | > 6.00
CC(=O)c1nn(CC(=O)N2C[C@H](F)C[C@H]2C(=O)Nc2cccc(Br)n2)c2ccc(-c3cnn4ccnc4c3)cc12 [Compound 304, (2S,4R)-1-(2-(3-acetyl-5-(imidazo[1,2-b]pyridazin-7-yl)-1H-indazol-1-yl)acetyl)-N-(6-bromopyridin-2-yl)-4-fluoropyrrolidine-2-carboxamide] | > 6.00
CC(=O)c1nn(CC(=O)N2C[C@H](F)C[C@H]2C(=O)Nc2cccc(-c3cc(F)ccc3S(C)(=O)=O)c2F)c2ccc(-c3cnc(C)nc3)cc12 [Compound 305, (2S,4R)-1-(2-(3-Acetyl-5-(2-methylpyrimidin-5-yl)-1H-indazol-1-yl)acetyl)-N-(2,5′-difluoro-2′-(methylsulfonyl)-[1,1′-biphenyl]-3-yl)-4-fluoropyrrolidine-2-carboxamide] | > 6.00
CC(=O)c1nn(CC(=O)N2C[C@H](F)C[C@H]2C(=O)Nc2cncc(Br)n2)c2ccc(-c3cnc4cc(C)nn4c3)cc12 [Compound 306, (2S,4R)-1-(2-(3-acetyl-5-(2-methylpyrazolo[1,5-a]pyrimidin-6-yl)-1H-indazol-1-yl)acetyl)-N-(6-bromopyrazin-2-yl)-4-fluoropyrrolidine-2-carboxamide] | > 6.00
Cc1ncc(-c2ccc3c(c2)c(C(N)=O)cn3CC(=O)N2C[C@H](F)C[C@H]2C(=O)Nc2cccc(Br)n2)cn1 [Compound 307, 1-(2-((2S,4R)-2-(6-bromopyridin-2-ylcarbamoyl)-4-fluoropyrrolidin-1-yl)-2-oxoethyl)-5-(2-methylpyrimidin-5-yl)-1H-indole-3-carboxamide] | > 6.00
CC(=O)c1nn(CC(=O)N2CCS[C@H]2C(=O)Nc2cccc(Br)n2)c2ccc(-c3cnc(C)nc3)cc12 [Compound 308, (S)-3-(2-(3-acetyl-5-(2-methylpyrimidin-5-yl)-1H-indazol-1-yl)acetyl)-N-(6-bromopyridin-2-yl)thiazolidine-2-carboxamide] | > 6.00
CC(=O)c1nn(CC(=O)N2C[C@H](F)C[C@H]2C(=O)Nc2cccc(Br)n2)c2ccc(-c3cnc4n3CCCC4)cc12 [Compound 309, (2S,4R)-1-(2-(3-acetyl-5-(5,6,7,8-tetrahydroimidazo [1,2-a]pyridin-3-yl)-1H-indazol-1-yl)acetyl)-N-(6-bromopyridin-2-yl)-4-fluoropyrrolidine-2-carboxamide] | > 6.00
CC(=O)c1cn(CC(=O)N2C[C@H](F)C[C@H]2C(=O)Nc2cncc(Br)n2)c2ccc(-c3cnc4cc(C)nn4c3)cc12 [Compound 310, (2S,4R)-1-(2-(3-acetyl-5-(2-methylpyrazolo[1,5-a]pyrimidin-6-yl)-1H-indol-1-yl)acetyl)-N-(6-bromopyrazin-2-yl)-4-fluoropyrrolidine-2-carboxamide] | > 6.00
CC(=O)c1nn(CC(=O)N2C[C@H](F)C[C@H]2C(=O)Nc2cccc(Br)n2)c2ccc(-c3ccc4nc(C)nn4c3)cc12 [Compound 311, (2S,4R)-1-(2-(3-acetyl-5-(2-methyl-[1,2,4]triazolo[1,5-a]pyridin-6-yl)-1H-indazol-1-yl)acetyl)-N-(6-bromopyridin-2-yl)-4-fluoropyrrolidine-2-carboxamide] | > 6.00
CC(=O)c1nn(CC(=O)N2CSC[C@H]2C(=O)Nc2cccc(Br)n2)c2ccc(-c3cnc(C)nc3)cc12 [Compound 312, (R)-3-(2-(3-acetyl-5-(2-methylpyrimidin-5-yl)-1H-indazol-1-yl)acetyl)-N-(6-bromopyridin-2-yl)thiazolidine-4-carboxamide] | > 6.00
CC(=O)c1nn(CC(=O)N2C[C@H](F)C[C@H]2C(=O)Nc2cncc(C(F)(F)F)n2)c2ccc(-c3cnc4cc(C)nn4c3)cc12 [Compound 313, (2S,4R)-1-(2-(3-acetyl-5-(2-methylpyrazolo[1,5-a]pyrimidin-6-yl)-1H-indazol-1-yl)acetyl)-4-fluoro-N-(6-(trifluoromethyl)pyrazin-2-yl)pyrrolidine-2-carboxamide] | > 6.00
Cc1ncc(-c2cc3c(s2)c(C(N)=O)nn3CC(=O)N2C[C@H](F)C[C@H]2C(=O)Nc2cccc(-c3ccccc3Cl)c2F)cn1 [Compound 314, 1-(2-((2S,4R)-2-((2′-Chloro-2-fluoro-[1,1′-biphenyl]-3-yl)carbamoyl)-4-fluoropyrrolidin-1-yl)-2-oxoethyl)-5-(2-methylpyrimidin-5-yl)-1H-thieno[3,2-c]pyrazole-3-carboxamide] | > 6.00
CC(=O)c1nn(CC(=O)N2CC[C@@H](O)[C@H]2C(=O)Nc2cccc(Br)n2)c2ccc(-c3cnc(C)nc3)cc12 [Compound 315, (2S,3R)-1-(2-(3-acetyl-5-(2-methylpyrimidin-5-yl)-1H-indazol-1-yl)acetyl)-N-(6-bromopyridin-2-yl)-3-hydroxypyrrolidine-2-carboxamide] | > 6.00
COCCOCCOCCOCCOCCOc1ncc(-c2ccc3c(c2)c(C(C)=O)nn3CC(=O)N2C[C@H](F)C[C@H]2C(=O)Nc2cccc(Br)n2)cn1 [Compound 316] | > 6.00
